Measurements: patent US20250360187A1, “HEPCIDIN MIMETICS FOR TREATMENT OF SICKLE CELL DISEASE” (Protagonist Therapeutics, Inc., priority 2022, published 2025)
“Also recorded” adds a separate entry of the source. Where a SMILES comes first, the peptide text is derived from it.

Tested on: Townes SCD mice
Experiment: Efficacy study of hepcidin mimetics in a mouse model of sickle cell disease (CBC, serum hemolysis biomarkers, spleen and liver weights)
Type: in vivo
Conditions: for % Retics / Abs Retics / HCT / HGB / MCH / MCHC / MCV / RBC / LDH / Total bilirubin: 4 weeks, mean ± SD; for LDH / Total bilirubin: serum
Protocol: Compound 46, a hepcidin mimetic, was administered subcutaneously at 1.0 mg/kg (group 3, N=9) or 2.5 mg/kg (group 4, N=9) in Townes SCD mice. 36 Townes SCD and 6 129S1/SvlmJ (wild-type), female mice, 5 weeks old upon delivery. A control group of wild-type mice (groups 1, N=6) was treated with vehicle as well as another SCD mice (group 2, N=9). All mice were dosed three times per week (TIW). All mice were maintained on an iron-adjusted diet (TD.140258, 35 ppm iron) throughout the study. Collections and necropsies were performed 24 hours post-last dose of compound or vehicle. After 4 weeks on study, animals from each group were euthanized, EDTA whole blood collected for CBC and serum was collected for hemolysis biomarker analysis. Spleens and livers were weighed at terminus. Liver, spleen, kidney, heart and brain were collected for future analysis. Serum and urine were collected to analyze chemistry markers, such as bilirubin, LDH (lactate dehydrogenase), haptoglobin, urine creatinine, urine total protein and urine urea nitrogen.
As shown in FIG. 4A and FIG. 4B, reticulocytes were counted both with the automated analyzer as well as manually from a new methylene blue stained blood smear by counting the number of positive stained cells encountered in 500 erythrocytes and calculating the percentage.

[1] = SCD mice, compared to vehicle, across doses
[2] = Townes SCD mice, Dose 1 (1.0 mg/kg s.c. TIW)
[3] = Townes SCD mice, Dose 2.5 (2.5 mg/kg s.c. TIW)

CCCCCCCCCCCCCCCC(=O)N[C@@H](CCC(=O)NCCCC[C@@H]1NC(=O)[C@H]([C@@H](C)CC)NC(=O)[C@@H](NC(=O)[C@@H]2CCCN2C(=O)[C@H](Cc2ccccc2)NC(=O)[C@H](Cc2cnc[nH]2)NC(=O)[C@@H](NC(=O)[C@H](CCC(=O)O)NC(=O)CC(C)C)[C@@H](C)O)CSSC[C@@H](C(=O)N[C@@H](CCCCN)C(N)=O)NC(=O)CNC(=O)[C@H](CCCCN)NC(=O)[C@H](CO)NC(=O)[C@H](CCCNC(=N)N)NC(=O)[C@@H]2CCCN2C(=O)[C@H](CCC(=O)O)NC(=O)[C@H](Cc2ccccc2)NC1=O)C(=O)O [Compound 46, Isovaleric_Acid-ETHFPCI(K(IsoGlu_Palm))FEPRSKGCK-NH2] (HELM PEPTIDE1{[CC(C)CC(=O)[*:2]].E.T.H.F.P.C.I.K.F.E.P.R.S.K.G.C.K.[am]}|PEPTIDE2{[CCCCCCCCCCCCCCCC(=O)[*:2]].[gGlu]}$PEPTIDE1,PEPTIDE2,9:R3-2:R2|PEPTIDE1,PEPTIDE1,7:R3-17:R3$$$V2.0)
RBC count (in words) (SCD mice, 2.5 mg/kg dose): significantly reduced | Percent of reticulocytes (in words) (SCD mice, 2.5 mg/kg dose, compared to vehicle control): decreased percent of reticulocytes significantly | Mean corpuscular hemoglobin concentration (MCHC) (in words) (SCD mice, 2.5 mg/kg, compared to vehicle control): significant increase in MCHC | Hematocrit (HCT) (in words) (SCD mice, across doses): significant reduction of HCT in a dose dependent manner | Lymphocyte count (in words) (SCD mice, across doses): significant WBC and lymphocyte reduction in a dose dependent manner; also recorded: alleviated elevated white blood cell (WBC) and lymphocytes counts | Neutrophil count (in words) (SCD mice, across doses): significantly decreased neutrophil count in a dose dependent manner; also recorded: alleviated elevated neutrophil and monocyte counts | Serum lactate dehydrogenase (LDH) (in words) (SCD mice, across doses): significantly reduced both parameters in a dose dependent manner | Serum total bilirubin (in words) (SCD mice, across doses): significantly reduced both parameters in a dose dependent manner | White blood cell (WBC) count (in words) (SCD mice, across doses): significant WBC and lymphocyte reduction in a dose dependent manner; also recorded: alleviated elevated white blood cell (WBC) and lymphocytes counts | Mean corpuscular volume (MCV) (in words) (SCD mice, across doses, compared to the vehicle group): significant reduction of MCV in a dose dependent manner | Hgb level (in words) (SCD mice, all three dose groups): significantly reduced in all three dose groups | Mean corpuscular hemoglobin (MCH) (in words) (SCD mice, compared to vehicle control): significant reduction in MCH | Liver to body weight ratios (in words) [1]: significantly lower in a dose dependent manner | Liver weight / liver size (in words) [1]: significantly lower in a dose dependent manner; also recorded: reduces liver size | Spleen to body weight ratios (in words) [1]: significantly and dose-dependently lower | Spleen weights / spleen size (in words) [1]: significantly and dose-dependently lower; also recorded: reduces spleen size | Monocyte count (in words) (Townes SCD mice): alleviated elevated neutrophil and monocyte counts | % Retics [2]: 65.78% | Abs Retics [2]: 2612 K/uL | HCT [2]: 29.62% | HGB [2]: 5.89 g/dL | MCH [2]: 9.89 pg | MCHC [2]: 19.82 g/dL | MCV [2]: 50.11 fL | RBC [2]: 5.94 M/uL | % Retics [3]: 50.33% | Abs Retics [3]: 1195 K/uL | HCT [3]: 16.27% | HGB [3]: 4.39 g/dL | MCH [3]: 9.82 pg | MCHC [3]: 23.22 g/dL | MCV [3]: 42.56 fL | RBC [3]: 4.49 M/uL | LDH [2]: 610.6 U/L | Total bilirubin [2]: 2.16 mg/dL | LDH [3]: 372.3 U/L | Total bilirubin [3]: 1.13 mg/dL
